Laboratory results published in patent US12678509B2, “Inhibitor of apoptosis (IAP) protein antagonists” (Sanford Burnham Prebys Medical Discovery Institute, priority 2019, dated 2026).

How the values were obtained:
[1] = Pharmacokinetic study in mice, snapshot PK; assay type: in vivo; settings: female, C57BL/6J, mouse, plasma, ip, one hour after i.p. injection of 10 mg/kg
Experimental: All animal procedures were approved by the Sanford Burnham Prebys Medical Discovery Institute Institutional Animal Care and Use Committee and were performed according to the NIH guidelines for the Care and Use of Laboratory Animals. Adult female C57BL/6J were purchased from JAX laboratories and housed with free access to food and water on a 12 h light/dark cycle. Compounds were formulated in 5% DMSO, 10% Tween-80, and 85% dH2O and injected intraperitoneally (i.p.) into mice at doses of 10 mg/kg. For snapshot PK analysis, blood samples were collected retro-orbitally one hour after injection and for the time course PK study, blood samples were collected at 15 min, 30 min, 1 h, 2 h, 4 h, 6 h, 24 h time points. For the blood samples plasma was separated by centrifugation. Plasma samples were extracted with acetonitrile:water 4:1 with 0.1% formic acid containing indometacin as an internal standard. Samples were centrifuged and supernatants were diluted with acetonitrile:water and analyzed via LC-MS/MS on a Shimadzu Nexera X2 HPLC coupled to an AB Sciex 6500 QTRAP.
Plasma exposure of selected compounds at 1 h compared.
Plasma levels of parent compound determined one hour after i.p. injection of 10 mg/kg

[2] = test system: NB-4; assay: Cell viability (CellTiter-Glo); assay type: cell-based, Human; settings: Homo sapiens, NB-4, 72 h, read-out: NB-4 Viability 72 h IC50
Experimental: The compound 18a was tested in 16 different cell lines. For 6-day compound treatment 1700 cells per well were plated in a 384-well plate (Corning #781098) and incubated overnight at 37° C./5% CO2. […] Afterwards, 20 μL CellTiter-Glo reagent (Promega, #G7570) was added to each well outside of the incubator and the plates were read for luminescence on a Spark® multimode microplate reader (Tecan). Data was fit in GraphPad Prism 8 to a nonlinear regression curve to determine the IC50 of the compounds. […]

[3] = test system: SKOV-3; assay: Cell viability (CellTiter-Glo), 48 hrs; assay type: cell-based; settings: Homo sapiens, SK-OV-3, 48 h, read-out: SKOV-3 Viability 48 h IC50
Experimental: One thousand seven hundred cells per well were plated in a 384 well plate and incubated overnight at 37° C./5% CO2. The following day, compounds in 10-fold dilutions were added to the plates and the plates returned to the incubator for 48 hrs. 48 hrs later, plates were removed to the bench and 20 μL CellTiter-Glo reagent was added to each well and the plates were read for luminescence on a Spark® multimode microplate reader (Tecan). Data were fit using PRISM to a nonlinear regression curve to determine the IC50 of the compounds.

[4] = test system: latently infected cell line Jurkat 2D10; assay: HIV Jurkat 2D10 cells GFP+ assay (reversal of HIV latency); assay type: cell-based; settings: Homo sapiens, Jurkat, 48 h, read-out: Jurkat 2D10 GFP+ EC50
Experimental: Several compounds (Table 5) were tested for their efficacy in the reversal of HIV latency in the latently infected cell line Jurkat 2D10. Jurkat 2D10 cells were treated with different doses of the compounds, or one of the following compounds: BV-6, SM-164, Birinapant, LCL-161, GDC-0152, AT-406 for 48 hours. Reversal of HW latency was evaluated by analyzing GFP expression using flow cytometry. Induction of GFP expression was compared to baseline GFP levels detected in the absence of treatment.

[5] = test system: MOLM 13; assay: Cell viability (CellTiter-Glo), 6-day compound treatment; assay type: cell-based, Human; settings: Homo sapiens, MOLM-13, 144 h, read-out: MOLM 13 Viability 6 d IC50
Experimental: The compound 18a was tested in 16 different cell lines. For 6-day compound treatment 1700 cells per well were plated in a 384-well plate (Corning #781098) and incubated overnight at 37° C./5% CO2. The following day, compounds in 10-fold dilutions were added to the plates and the plates were incubated for 6 days. Afterwards, 20 μL CellTiter-Glo reagent (Promega, #G7570) was added to each well outside of the incubator and the plates were read for luminescence on a Spark® multimode microplate reader (Tecan). Data was fit in GraphPad Prism 8 to a nonlinear regression curve to determine the IC50 of the compounds. […]

[6] = target: BIR3 domain of cIAP2 (Homo sapiens, UniProt Q13489); assay: Fluorescence polarization assay; assay type: binding; settings: SMAC-FITC probe, Ki calculated from IC50
Experimental: (§1) Binding of compounds to ML-IAP and BIR3 domain of cIAP1, cIAP2 and XIAP was determined by fluorescence polarization. Assay buffer was 100 mM KH2PO4 at pH 7.5, 50 μM ZnSO4, 1 mM TCEP (Tris(2-carboxyethyl)phosphine hydrochloride) and 50 nM SMAC-FITC probe (AbuRPF-K(5-Fam)-NH2) as described by Z. Nikolovska-Coleska et al.^9. cIAP1 and XIAP were present at 800 nM while cIAP2 and MLIAP were present at 1.5 μM. Compounds in 3-fold dilutions were added to the plates ranging from 30 μM to 1.5 nM. Assays were run in 384-well black plates read (Greiner Bio-One #784076) in an Analyst in fluorescence polarization mode with excitation at 485 nm and emission at 535 nm. Data was fit to a nonlinear regression curve in GraphPad Prism 8 to determine the IC50 values of the compounds. Ki's were then calculated from the IC50 values using equation: Ki=[I]50/([L]50/Kd+[P]0/Kd+1) formulated by Z. Nikolovska-Coleska et al.

[7] = target: BIR3 domain of cIAP1 (Homo sapiens, UniProt Q13490); assay: Fluorescence polarization assay; assay type: binding; settings: SMAC-FITC probe, Ki calculated from IC50
Experimental: as §1

[8] = target: T1, ML-IAP (Homo sapiens, UniProt Q96CA5); assay: Fluorescence polarization assay; assay type: binding; settings: SMAC-FITC probe, Ki calculated from IC50
T1 sequence (Q96CA5 1-298): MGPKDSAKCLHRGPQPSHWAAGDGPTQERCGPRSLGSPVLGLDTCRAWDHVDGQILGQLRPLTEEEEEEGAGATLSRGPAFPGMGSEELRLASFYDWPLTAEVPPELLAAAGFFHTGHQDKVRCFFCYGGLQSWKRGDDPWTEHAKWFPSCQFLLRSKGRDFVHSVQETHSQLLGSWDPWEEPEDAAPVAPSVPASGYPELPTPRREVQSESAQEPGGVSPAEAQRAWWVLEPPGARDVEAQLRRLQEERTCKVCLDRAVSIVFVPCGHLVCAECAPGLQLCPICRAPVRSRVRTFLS
Experimental: as §1

[9] = target: BIR3 domain of XIAP (Homo sapiens, UniProt P98170); assay: Fluorescence polarization assay; assay type: binding; settings: SMAC-FITC probe, Ki calculated from IC50
Experimental: as §1

[10] = test system: AML-SH-065; assay: Cell viability in patient derived AML samples (CellTiterGlo, 72 h); assay type: cell-based, human; settings: for IC50: Homo sapiens, 72 h, read-out: AML-SH-065 IC50; for AML-SH-065 Efficacy: patient derived AML sample AML-SH-065, 72 h, cell viability at max. concentration
Experimental: (§2) Patient AML samples were gathered (under IRB 13-6180) from Scripps MD Anderson, La Jolla, CA Fresh blood samples were subjected to gradient density centrifugation with Ficoll-Paque™ PLUS (17-1440-02, GE Healthcare) and peripheral blood mononuclear cells purified as per manufacturer's protocol.
(§3) 75 nL of 1000× serially diluted IAP inhibitors were spotted in triplicate onto 384-well tissue culture treated plates (Greiner) using a Labcyte Echo acoustic dispensing device. Patient-derived AML cells were maintained in mTeSR1^+1× supplements (Stemcell Technologies) and penicillin/streptomycin/L-glutamine (Omega Scientific Inc.) and Fungizone (HyClone). 25 μL of cell dilution were plated into 384-well plate containing the drugs and incubated for 72 h. Cell viability was assessed by adding 25 μL CellTiterGlo (Promega Corp.) on a Synergy 2 plate reader with Gen5 software (Biotek). % viability was calculated by normalizing luminescence to vehicle only controls (DMSO) in Microsoft Excel and plotted using GraphPad Prism 8. The IC50 values were calculated using log(inhibitor) vs. response—Variable slope (four parameters) equation. (FIG. 6)

[11] = test system: AML-SH-075; assay: as above; assay type: cell-based, human; settings: for IC50: Homo sapiens, 72 h, read-out: AML-SH-075 IC50; for AML-SH-075 Efficacy: patient derived AML sample AML-SH-075, 72 h, cell viability at max. concentration
Experimental: as §2, §3

[12] = test system: AML-SH-074; assay: as above; assay type: cell-based, human; settings: for IC50: Homo sapiens, 72 h, read-out: AML-SH-074 IC50; for AML-SH-074 Efficacy: patient derived AML sample AML-SH-074, 72 h, cell viability at max. concentration
Experimental: as §2, §3

BIR3 domain of cIAP2, sequence (Q13489 238-349 limits assumed): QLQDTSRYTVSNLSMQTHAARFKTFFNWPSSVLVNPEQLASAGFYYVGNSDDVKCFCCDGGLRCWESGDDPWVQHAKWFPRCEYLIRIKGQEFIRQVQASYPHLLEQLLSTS
BIR3 domain of XIAP, sequence (P98170 241-356 limits assumed): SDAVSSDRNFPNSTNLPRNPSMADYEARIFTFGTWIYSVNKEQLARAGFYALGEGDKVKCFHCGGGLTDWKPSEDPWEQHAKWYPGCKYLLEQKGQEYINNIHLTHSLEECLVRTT
BIR3 domain of cIAP1, sequence (Q13490 253-363 limits assumed): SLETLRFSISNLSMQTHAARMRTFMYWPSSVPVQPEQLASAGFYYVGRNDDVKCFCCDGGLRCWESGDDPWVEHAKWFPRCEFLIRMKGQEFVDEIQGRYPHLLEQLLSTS

SMILES: CN[C@@H](C)C(=O)N[C@H]1CCS[C@H]2CC(C)(C)[C@@H](C(=O)N[C@H]3c4ccccc4C[C@H]3OCC#Cc3ccc(C#CCO[C@@H]4Cc5ccccc5[C@@H]4NC(=O)[C@H]4N5C(=O)[C@@H](NC(=O)[C@H](C)NC)CCS[C@H]5CC4(C)C)cc3)N2C1=O [Compound 18c]
- concentration at 1 h [1]: 1310 nM
- IC50 [2]: < 10 nM
- IC50 [3]: < 10 nM
- EC50 [4]: 1 to 10 nM
- IC50 [5]: 10 to 100 nM
- Ki [6]: 50 to 100 nM
- Ki [7]: ≤ 50 nM
- Ki [8]: 50 to 100 nM
- Ki [9]: ≤ 50 nM
- IC50 [10]: 10 to 100 nM
- AML-SH-065 Efficacy [10]: I (I < 10%)
- IC50 [11]: 1000 to 10000 nM
- AML-SH-075 Efficacy [11]: I (I < 10%)
- IC50 [12]: 100 to 1000 nM
- AML-SH-074 Efficacy [12]: I (I < 10%)

SMILES: CN[C@@H](C)C(=O)N[C@H]1CCS[C@H]2CC(C)(C)[C@@H](C(=O)N[C@H]3c4ccccc4C[C@H]3OCC#Cc3ccc(CO[C@@H]4Cc5ccccc5[C@@H]4NC(=O)[C@H]4N5C(=O)[C@@H](NC(=O)[C@H](C)NC)CCS[C@H]5CC4(C)C)cc3)N2C1=O [Compound 18e, (2S)-1-{[(4S,7S,9aS)-7-{[(1S,2R)-2-({3-[4-({[(1S,2R)-1-({[(4S,7S,9aS)-8,8-Dimethyl-4-{[(2S)-2-(methylammonio)propanoyl]amino}-5-oxooctahydropyrrolo[2,1-b][1,3]thiazepin-7-yl]carbonyl}amino)-2,3-dihydro-1H-inden-2-yl]oxy}methyl)phenyl]prop-2-ynyl}oxy)-2,3-dihydro-1H-inden-1-yl]carbamoyl}-8,8-dimethyl-5-oxooctahydropyrrolo[2,1-b][1,3]thiazepin-4-yl]amino}-N-methyl-1-oxopropan-2-ammonium dichloride]
- concentration at 1 h [1]: 6200 nM
- IC50 [2]: 10 to 100 nM
- IC50 [3]: < 10 nM
- EC50 [4]: < 1 nM
- IC50 [5]: 100 to 1000 nM
- Ki [6]: 100 to 200 nM
- Ki [7]: 50 to 100 nM
- Ki [8]: 100 to 200 nM
- Ki [9]: ≤ 50 nM
- IC50 [10]: 10 to 100 nM
- AML-SH-065 Efficacy [10]: I (I < 10%)
- IC50 [11]: 1000 to 10000 nM
- AML-SH-075 Efficacy [11]: I (I < 10%)
- IC50 [12]: 100 to 1000 nM
- AML-SH-074 Efficacy [12]: I (I < 10%)

SMILES: CN[C@@H](C)C(=O)N[C@H]1CCS[C@H]2CC(C)(C)[C@@H](C(=O)N[C@H]3c4ccccc4C[C@H]3OCc3ccc(CO[C@@H]4Cc5ccccc5[C@@H]4NC(=O)[C@H]4N5C(=O)[C@@H](NC(=O)[C@H](C)NC)CCS[C@H]5CC4(C)C)cc3)N2C1=O [Compound 18g, (2S)-1-{[(4S,7S,9aS)-7-{[(1S,2R)-2-{[4-({[(1S,2R)-1-({[(4S,7S,9aS)-8,8-Dimethyl-4-{[(2S)-2-(methylammonio)propanoyl]amino}-5-oxooctahydropyrrolo[2,1-b][1,3]thiazepin-7-yl]carbonyl}amino)-2,3-dihydro-1H-inden-2-yl]oxy}methyl)benzyl]oxy}-2,3-dihydro-1H-inden-1-yl]carbamoyl}-8,8-dimethyl-5-oxooctahydropyrrolo[2,1-b][1,3]thiazepin-4-yl]amino}-N-methyl-1-oxopropan-2-ammonium dichloride]
- concentration at 1 h [1]: 2680 nM
- IC50 [2]: < 10 nM
- IC50 [3]: < 10 nM
- EC50 [4]: 1 to 10 nM
- IC50 [5]: 10 to 100 nM
- Ki [6]: 50 to 100 nM
- Ki [7]: ≤ 50 nM
- Ki [8]: 50 to 100 nM
- Ki [9]: ≤ 50 nM
- IC50 [10]: 10 to 100 nM
- AML-SH-065 Efficacy [10]: I (I < 10%)
- IC50 [11]: 10 to 100 nM
- AML-SH-075 Efficacy [11]: I (I < 10%)
- IC50 [12]: 100 to 1000 nM
- AML-SH-074 Efficacy [12]: I (I < 10%)
